Assay results taken from patent publication US20070149483A1, “Methods and compounds for modulating triglyceride and vldl secretion” (priority 2003, published 2007).
Marks after values point to notes of the source that are not given here.

How the values were obtained:
Assay type in all cases: cell-based, rat
[1] = tested on: McA-RH7777 cells stably expressing human apoB100; test: Pulse-chase (1 h pulse, up to 3 h chase) of apoB100 and apoA-I secretion efficiency
Experimental: The cells were then incubated with chase medium for 15, 30 and 45 min. At the end of each chase time, the medium was collected and subjected to cumulative rate flotation centrifugation (Wang et al., 1999) to resolve apoB100-VLDL1 (Sf>100) and apoB100-VLDL2 (Sf 20-100) from other lipoproteins (i.e. IDL, LDL and HDL). The ^35S-apoB100 in each fraction was recovered by immunoprecipitation. Also, at the end of each chase time, the radiolabeled cells were harvested in 2 ml of ice-cold homogenization buffer (10 mM Tris-HCl, pH 7.4, 250 mM sucrose, 5 mM EDTA, and serine/cysteine protease inhibitor mixture), mixed with two 100-mm dishes of unlabeled cells, homogenized by passing ten times through a ball-bearing homogenizer, and subjected to subcellular fractionation and carbonate-treatment as described below.
Oleate and EPA were present in both pulse and chase media. The [^35S]-apoB100 from total cell lysates (FIG. 2A) or conditioned media (FIG. 2B) was immunoprecipitated, resolved by SDS-PAGE, and visualized by fluorography. Radioactivity associated with [^35S]-apoB100 was quantified. As shown in the top panels of FIG. 2A to 2B, the data is expressed as absolute amount of radioactivity associated with [^35S]-apoB100 at the end of 1-h pulse. As shown in the […] panels of FIG. 2A to 2B, the data is expressed as percent of the initial counts associated with ^35S-apoB100 at the end of 1-h pulse. […] The experiments were repeated and similar results were obtained.
It has been shown previously that VLDL, particles carry >80% of total TG but <10% of total apoB100 secreted from oleate-treated McA-RH777 cells (Wang et al., 1999, J. Biol. Chem. 274: 27793-27800). Thus the possibility was considered that the above pulse (30-min)-chase(60 min) experiment might fail to detect decreased secretion and increased post-translational degradation of apoB100 because n-3 fatty acid treatment was reported to selectively decrease apoB100 in VLDL fractions (Fisher and Ginsberg, 2002, J. Biol. Chem. 277: 17377-17380). In the next set of experiments, the pulse-labelling period was extended to 1 h to maximize [^35S]-labelling of apoB100 and to allow examination of potential posttranslational degradation. […] The high labelling of apoB100 at the end of 1-h pulse may reflect increased intracellular accumulation of newly synthesized apoB100 and/or impaired secretion. […] The secretion efficiency, which measures the proportion of total metabolically labelled [^35S]-apoB100 secreted at the end of chase was decreased from 60% to 40% in EPA-treated cells compared to OA-treated cells (FIG. 2B, bottom). […]

[2] = tested on: McA-RH7777 cells stably expressing human apoB100; test: Competitive ELISA of apoB100 protein in medium; details: after 16-h incubation, n=3
Experimental: (§1) Cell Culture and Fatty Acid Treatments—Transfected McA-RH7777 cells stably expressing human apoB100 (McLeod et al., 1994, J. Biol. Chem. 269, 2852-2862) were cultured in Dulbecco's modified Eagle's medium (DMEM) containing 10% fetal bovine serum (FBS), 10% horse serum and 200 μg/ml G418. Routinely, the cells were incubated with 0.4 mM fatty acids for 16-18 h in the presence of 20% FBS prior to experiments.
Competitive Enzyme Linked Immunosorbent Assay (ELISA)—The ELISA plates were coated with human LDL (1 mg/ml in PBS, 16 h, 4° C.), blocked with skim milk (5% in PBS, 2 h, 37° C.), and washed three times with PBS containing 0.02% Tween-20. The plates were incubated with apoB monoclonal antibody 1D1 (1:64,000, 16 h, 4° C.) in the presence of serial diluted concentrations of human LDL or medium samples. The plates were washed and incubated with horseradish peroxidase-linked anti-mouse IgG antibody (1:10,000, 2 h, 37° C.), followed by addition of the liquid substrate system for ELISA (3,3′,5,5′-tetramethyl-benzidine). The reaction was quantified colorimetrically by spectrophotometer reading at OD665.

[3] = tested on: McA-RH7777 cells stably expressing human apoB100; test: Synthesis and secretion of [3H]glycerol-labelled TG and PC
Experimental: as §1
Other Assays—The TG transfer activity of MTP was determined according to published method (Wetterau et al., 1992, Science 258, 999-1001) with modifications (Wang et al., 1999). The phosphatidate phosphohydrolase activity was determined by an established method (Jamal et al., 1991, J. Biol. Chem. 266, 2988-2996). Lipid extraction and analysis by TLC was performed as previously described (Tran et al., 2000). Protein was determined using the BCA™ protein assay kit (Pierce).

[4] = tested on: McA-RH7777 cells stably expressing human apoB100; test: Tandem mass spectrometry of PC and PE in membranes of subcellular organelles; details: for PC content, Total / PC content, membranes of ER / PC content, membranes of cis/medial Golgi / PC content, membranes of distal Golgi / PE content, Total / PE content, membranes of ER / PE content, membranes of cis/medial Golgi / PE content, membranes of distal Golgi: control cells set as 100
Source text: Subcellular Fractionation—Three subcellular fractions (i.e., ER, fractions 1 through 3; cis/medial Golgi, fractions 4 through 8; distal Golgi, fractions 9 through 15) were obtained from the cell lysates using Nycodenz gradient centrifugation (Hammond and Helenius, 1994, J. Cell Biol. 126, 41-52; Rickwood et al., 1982, Anal. Biochem. 123, 23-31) of the post-nuclear supernatant as previously described (Tran et al., 2002). […] The membrane and lumen preparations from ER (Nycodenz fractions 1 through 3), cis/medial Golgi (fractions 4 through 8), and distal Golgi (fractions 9 through 15) were derived from cells pooled from eight 100-mm dishes. Lipids were extracted from the samples with chloroform/methanol/acetic acid/saturated NaCl/H2O (4:2:0.1:1:2, by volume) in the presence of 230 pmol dimirystoyl (14:0-14:0) PC and 110 pmol dipalmitoyl (16:0-16:0) PE as internal standards. Aliquots of lipid extracts were applied to tandem mass spectrometry, and the molecular species (i.e. fatty acid composition) of PC and PE was determined by daughter ion analysis in the negative ion mode as previously described (Tran et al., 2002; DeLong et al., 1999, J. Biol. Chem. 274, 29683-29688). The integrated area under the peak of each molecular species was quantified by comparing with those of internal standards.

[5] = end of 2-h labelling with [^3H]glycerol, means ± SD of triplicate

| SMILES | amount of [^35S] incorporated into apoB100 at the end of 1-h pulse [1] | amount of apoB100 protein accumulated in the medium [2] [µg/mL] | [^3H]PC Cell [3, 5] [cpm × 10^−3/dish] | [^3H]PC Medium [3, 5] [cpm × 10^−3/dish] | [^3H]TG Medium [3, 5] | PC content, Total [4] | PC content, membranes of ER [4] | PC content, membranes of cis/medial Golgi [4] | PC content, membranes of distal Golgi [4] | PE content, Total [4] | PE content, membranes of ER [4] | PE content, membranes of cis/medial Golgi [4] | PE content, membranes of distal Golgi [4] | increase in PE mass in the ER ([4]; vs untreated control) [%] | increase in total PE mass ([4]; vs untreated control) [%] | also measured |
| --- | --- | --- | --- | --- | --- | --- | --- | --- | --- | --- | --- | --- | --- | --- | --- | --- |
| CCCCCCCC/C=C\CCCCCCCC(=O)O [Oleate, oleic acid] | 6.40×10^4 cpm/dish | 2.74 ± 0.48 | 15.00 ± 0.23 | 4.10 ± 0.12 | 12.87 ± 1.59 cpm × 10^−3/dish | (156) % of control | (182) % of control | (107) % of control | (173) % of control | (129) % of control | (172) % of control | (112) % of control | (106) % of control | 72 | 29 | increase in PC mass in the ER ([4]; vs untreated control): 82%; increase in PC mass in the distal Golgi ([4]; vs untreated control): 73%; increase in total PC mass associated with intracellular microsomes ([4]; vs untreated control): 56% |
| CC/C=C\C/C=C\C/C=C\C/C=C\C/C=C\CCCC(=O)O [EPA, eicosapentaenoic acid] | 9.43×10^4 cpm/dish | 2.5 ± 0.43 | 15.80 ± 0.44 | 3.86 ± 0.57 | 7.18 ± 0.96^b cpm × 10^−3/dish | (92)* % of control | (108)* % of control | (70)* % of control | (94)* % of control | (185)* % of control | (216) % of control | (127) % of control | (270)* % of control | 116 | 85 | [^35S] incorporated into apoB100 at the end of 1-h pulse, greater than in oleate-treated cells [1]: ~40%; secretion efficiency (proportion of total metabolically labelled [^35S]-apoB100 secreted at the end of chase) ([1]; 3-h chase): 40%; [^3H]TG Cell [3, 5]: 40.84 ± 0.70^b cpm × 10^−3/dish; reduction in secretion of [^3H]glycerol-labelled TG ([3]; vs oleate-treated cells): 50%; increase in PE mass in the distal Golgi ([4]; vs untreated control): 170% |
